Results reported in patent US20200190087A1 (priority 2016, published 2020).
Like-named read-outs stand apart in the source and are kept apart here.

Legend:
[1] = target: Human α2δ-1 subunit of Cav2.2 calcium channel (Homo sapiens, UniProt P54289); test: Human α2δ-1 subunit of Cav2.2 calcium channel assay ([3H]-Gabapentin binding); conditions: human α2δ-1 enriched membranes, 15 nM [3H]-Gabapentin, binding expressed as Ki; read-out: α2δ1 binding activity
Description: Human α2δ-1 Subunit of Cav2.2 Calcium Channel Assay
Human α2δ-1 enriched membranes (2.5 μg) were incubated with 15 nM of radiolabeled [3H]-Gabapentin in assay buffer containing Hepes-KOH 10 mM, pH 7.4. NSB (non specific binding) was measured by adding 10 μM pregabalin. The binding of the test compound was measured at five different concentrations. After 60 min incubation at 27° C., binding reaction was terminated by filtering through Multiscreen GF/C (Millipore) presoaked in 0.5% polyethyleneimine in Vacuum Manifold Station, followed by 3 washes with ice-cold filtration buffer containing 50 mM Tris-HCl, pH 7.4. Filter plates were dried at 60° C. for 1 hour and 30 μl of scintillation cocktail were added to each well before radioactivity reading. Readings were performed in a Trilux 1450 Microbeta radioactive counter (Perkin Elmer).

human μ-opioid receptor = target: T1, human μ-opioid receptor (Homo sapiens, UniProt P35372); test: Human μ-opioid receptor radioligand assay ([3H]-DAMGO); format: binding
T1 construct: expressed in transfected cells; host or cells: CHO-K1
Description: Human μ-Opioid Receptor Radioligand Assay
To investigate binding properties of test compounds to human μ-opioid receptor, transfected CHO-K1 cell membranes and [^3H]-DAMGO (Perkin Elmer, ES-542-C), as the radioligand, were used. The assay was carried out with 20 μg of membrane suspension, 1 nM of [^3H]-DAMGO in either absence or presence of either buffer or 10 μM Naloxone for total and non-specific binding, respectively. Binding buffer contained Tris-HCl 50 mM, MgCl2 5 mM at pH 7.4. Plates were incubated at 27° C. for 60 minutes. After the incubation period, the reaction mix was then transferred to MultiScreen HTS, FC plates (Millipore), filtered and plates were washed 3 times with ice-cold 10 mM Tris-HCL (pH 7.4). Filters were dried and counted at approximately 40% efficiency in a MicroBeta scintillation counter (Perkin-Elmer) using EcoScint liquid scintillation cocktail. Preferably, transfected CHO-K1 cell membranes (20 μg) were incubated with 1 nM of [^3H]-DAMGO in assay buffer containing Tris-HCl 50 mM, MgCl2 5 mM at pH 7.4. NBS (non-specific binding) was measured by adding 10 μM Naloxone. The binding of the test compound was measured at five different concentrations. Plates were incubated at 27° C. for 60 minutes. After the incubation period, the reaction mix was then transferred to MultiScreen HTS, FC plates (Millipore), filtered and plates were washed 3 times with ice-cold 10 mM Tris-HCL (pH 7.4). Filters were dried and counted at approximately 40% efficiency in a MicroBeta scintillation counter (Perkin-Elmer) using EcoScint liquid scintillation cocktail.

[2] = transfected CHO-K1 cell membranes, 1 nM [3H]-DAMGO, binding expressed as Ki, read-out: Mu binding activity

Chain of Human α2δ-1 subunit of Cav2.2 calcium channel (P54289 25-1103): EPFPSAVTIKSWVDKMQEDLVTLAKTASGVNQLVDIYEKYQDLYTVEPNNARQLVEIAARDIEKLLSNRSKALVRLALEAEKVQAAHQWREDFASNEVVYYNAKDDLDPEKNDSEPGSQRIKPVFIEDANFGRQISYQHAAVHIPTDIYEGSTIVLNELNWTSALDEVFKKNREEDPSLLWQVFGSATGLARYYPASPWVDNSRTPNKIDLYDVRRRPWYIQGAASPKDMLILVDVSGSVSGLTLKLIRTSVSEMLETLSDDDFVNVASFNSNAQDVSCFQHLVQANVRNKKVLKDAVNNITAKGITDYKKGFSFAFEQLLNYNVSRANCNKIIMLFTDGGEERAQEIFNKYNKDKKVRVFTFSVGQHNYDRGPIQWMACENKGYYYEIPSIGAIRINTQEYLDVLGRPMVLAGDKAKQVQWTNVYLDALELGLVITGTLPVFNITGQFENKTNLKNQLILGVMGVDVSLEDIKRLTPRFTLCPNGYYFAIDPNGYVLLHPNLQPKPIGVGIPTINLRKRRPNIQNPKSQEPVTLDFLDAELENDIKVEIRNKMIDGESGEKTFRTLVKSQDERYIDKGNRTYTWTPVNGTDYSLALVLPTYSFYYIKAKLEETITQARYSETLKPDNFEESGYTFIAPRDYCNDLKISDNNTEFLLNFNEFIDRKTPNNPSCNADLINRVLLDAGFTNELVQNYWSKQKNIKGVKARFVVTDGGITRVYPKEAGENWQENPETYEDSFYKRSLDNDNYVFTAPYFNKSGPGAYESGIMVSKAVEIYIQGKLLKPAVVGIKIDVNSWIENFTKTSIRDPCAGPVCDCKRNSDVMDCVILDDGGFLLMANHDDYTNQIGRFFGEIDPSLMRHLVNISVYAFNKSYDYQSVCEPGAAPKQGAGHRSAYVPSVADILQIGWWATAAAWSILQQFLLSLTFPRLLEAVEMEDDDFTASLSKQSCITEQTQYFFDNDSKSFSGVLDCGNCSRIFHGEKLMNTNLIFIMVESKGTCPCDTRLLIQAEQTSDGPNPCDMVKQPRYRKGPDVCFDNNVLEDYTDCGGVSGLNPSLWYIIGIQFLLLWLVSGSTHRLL
T1 sequence (P35372 whole entry): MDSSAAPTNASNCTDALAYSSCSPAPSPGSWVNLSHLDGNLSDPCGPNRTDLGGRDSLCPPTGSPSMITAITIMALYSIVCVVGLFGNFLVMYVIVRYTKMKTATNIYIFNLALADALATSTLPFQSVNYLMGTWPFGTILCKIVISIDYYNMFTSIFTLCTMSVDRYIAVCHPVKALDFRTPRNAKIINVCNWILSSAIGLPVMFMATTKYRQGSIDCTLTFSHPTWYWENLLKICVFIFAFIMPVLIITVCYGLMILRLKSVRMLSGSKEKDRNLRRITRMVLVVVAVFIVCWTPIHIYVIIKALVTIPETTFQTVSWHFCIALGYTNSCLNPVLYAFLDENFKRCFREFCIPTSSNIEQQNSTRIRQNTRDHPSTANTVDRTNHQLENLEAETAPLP

Row | Ki [1] [nM] | Ki (human μ-opioid receptor; [2]) [nM] | SMILES | Ki (human μ-opioid receptor) [nM]
1 | ≥ 5000 | > 500 | CCOc1ccc(-n2nc3c(CCNCCc4ccccc4)nnc(C)c3c2C)c(F)c1 [Ex 41, 2-(2-(4-Ethoxy-2-fluorophenyl)-3,4-dimethyl-2H-pyrazolo[3,4-d]pyridazin-7-yl)-N-phenethylethan-1-amine] | –
2 | 500 to 3000 | > 500 | CCOc1ccc(-n2nc3c(C4CCN(CCc5ccccn5)CC4)nnc(C)c3c2C)c(F)c1 [Ex 42, 2-(4-Ethoxy-2-fluorophenyl)-3,4-dimethyl-7-(1-(2-(pyridin-2-yl)ethyl)piperidin-4-yl)-2H-pyrazolo[3,4-d]pyridazine] | –
3 | 500 to 3000 | > 500 | CCOc1ccc(-n2nc3c(C4CCN(CCc5cccc(OC)c5)CC4)nnc(C)c3c2C)c(F)c1 [Ex 45, 2-(4-Ethoxy-2-fluorophenyl)-7-(1-(3-methoxyphenethyl)piperidin-4-yl)-3,4-dimethyl-2H-pyrazolo[3,4-d]pyridazine] | –
4 | 500 to 3000 | > 500 | CCOc1ccc(-n2nc3c(C4CCN(CCc5ccc(F)cc5)CC4)nnc(C)c3c2C)c(F)c1 [Ex 46, 2-(4-Ethoxy-2-fluorophenyl)-7-(1-(4-fluorophenethyl)piperidin-4-yl)-3,4-dimethyl-2H-pyrazolo[3,4-d]pyridazine] | –
5 | 500 to 3000 | > 500 | CCOc1ccc(-n2nc3c(C4CCN(CCc5cccnc5)CC4)nnc(C)c3c2C)c(F)c1 [Ex 47, 2-(4-Ethoxy-2-fluorophenyl)-3,4-dimethyl-7-(1-(2-(pyridin-3-yl)ethyl)piperidin-4-yl)-2H-pyrazolo[3,4-d]pyridazine] | –
6 | 500 to 3000 | > 500 | CCOc1ccc(-n2nc3c(C4CCN(Cc5ncccc5F)CC4)nnc(C)c3c2C)c(F)c1 [Ex 48, 2-(4-Ethoxy-2-fluorophenyl)-7-(1-((3-fluoropyridin-2-yl)methyl)piperidin-4-yl)-3,4-dimethyl-2H-pyrazolo[3,4-d]pyridazine] | –
7 | 500 to 3000 | > 500 | CCOc1ccc(-n2nc3c(C4CCN(Cc5ncccc5C(F)(F)F)CC4)nnc(C)c3c2C)c(F)c1 [Ex 49, 2-(4-Ethoxy-2-fluorophenyl)-3,4-dimethyl-7-(1-((3-(trifluoromethyl)pyridin-2-yl)methyl)piperidin-4-yl)-2H-pyrazolo[3,4-d]pyridazine] | –
8 | 500 to 3000 | > 500 | CCOc1ccc(-n2nc3c(C4CCN(Cc5ncccc5OC)CC4)nnc(C)c3c2C)c(F)c1 [Ex 50, 2-(4-Ethoxy-2-fluorophenyl)-7-(1-((3-methoxypyridin-2-yl)methyl)piperidin-4-yl)-3,4-dimethyl-2H-pyrazolo[3,4-d]pyridazine] | –
9 | 500 to 3000 | > 500 | CCOc1ccc(-n2nc3c(C4CCN(Cc5ncccc5Cl)CC4)nnc(C)c3c2C)c(F)c1 [Ex 51, 7-(1-((3-Chloropyridin-2-yl)methyl)piperidin-4-yl)-2-(4-ethoxy-2-fluorophenyl)-3,4-dimethyl-2H-pyrazolo[3,4-d]pyridazine] | –
10 | 3000 to 5000 | > 500 | CCOc1ccc(-n2nc3c(C4CCN(Cc5cc(C(F)(F)F)ccn5)CC4)nnc(C)c3c2C)c(F)c1 [Ex 52, 2-(4-Ethoxy-2-fluorophenyl)-3,4-dimethyl-7-(1-((4-(trifluoromethyl)pyridin-2-yl)methyl)piperidin-4-yl)-2H-pyrazolo[3,4-d]pyridazine] | –
11 | 500 to 3000 | > 500 | CCOc1ccc(-n2nc3c(C4CCN(Cc5ccc(Cl)cn5)CC4)nnc(C)c3c2C)c(F)c1 [Ex 53, 7-(1-((5-Chloropyridin-2-yl)methyl)piperidin-4-yl)-2-(4-ethoxy-2-fluorophenyl)-3,4-dimethyl-2H-pyrazolo[3,4-d]pyridazine] | –
12 | 500 to 3000 | > 500 | CCOc1ccc(-n2nc3c(C4CCN(Cc5ccc(O)cn5)CC4)nnc(C)c3c2C)c(F)c1 [Ex 54, 6-((4-(2-(4-Ethoxy-2-fluorophenyl)-3,4-dimethyl-2H-pyrazolo[3,4-d]pyridazin-7-yl)piperidin-1-yl)methyl)pyridin-3-ol] | –
13 | 500 to 3000 | > 500 | CCOc1ccc(-n2nc3c(C4CCN(Cc5ccc(F)cn5)CC4)nnc(C)c3c2C)c(F)c1 [Ex 55, 2-(4-Ethoxy-2-fluorophenyl)-7-(1-((5-fluoropyridin-2-yl)methyl)piperidin-4-yl)-3,4-dimethyl-2H-pyrazolo[3,4-d]pyridazine] | –
14 | 500 to 3000 | > 500 | CCOc1ccc(-n2nc3c(C4CCN(Cc5ccc(C(F)(F)F)cn5)CC4)nnc(C)c3c2C)c(F)c1 [Ex 56, 2-(4-Ethoxy-2-fluorophenyl)-3,4-dimethyl-7-(1-((5-(trifluoromethyl)pyridin-2-yl)methyl)piperidin-4-yl)-2H-pyrazolo[3,4-d]pyridazine] | –
15 | 500 to 3000 | > 500 | CCOc1ccc(-n2nc3c(C4CCN(CCc5ccncc5)CC4)nnc(C)c3c2C)c(F)c1 [Ex 57, 2-(4-Ethoxy-2-fluorophenyl)-3,4-dimethyl-7-(1-(2-(pyridin-4-yl)ethyl)piperidin-4-yl)-2H-pyrazolo[3,4-d]pyridazine] | –
16 | 500 to 3000 | > 500 | CCOc1ccc(-n2nc3c(C4CCN(CC(O)c5ccccc5)CC4)nnc(C)c3c2C)c(F)c1 (centres unmarked) [Ex 58, 2-(4-(2-(4-Ethoxy-2-fluorophenyl)-3,4-dimethyl-2H-pyrazolo[3,4-d]pyridazin-7-yl)piperidin-1-yl)-1-phenylethan-1-ol] | –
17 | ≥ 5000 | > 500 | CCOc1ccc(-n2nc3c(C#N)nnc(C)c3c2C)c(F)c1 [Ex 59, 2-(4-Ethoxy-2-fluorophenyl)-3,4-dimethyl-2H-pyrazolo[3,4-d]pyridazine-7-carbonitrile] | –
18 | 500 to 3000 | > 500 | CCOc1ccc(-n2nc3c(CN4CCC(c5cccc(O)c5)CC4)nnc(C)c3c2C)c(F)c1 [Ex 60, 3-(1-((2-(4-Ethoxy-2-fluorophenyl)-3,4-dimethyl-2H-pyrazolo[3,4-d]pyridazin-7-yl)methyl)piperidin-4-yl)phenol] | –
19 | 500 to 3000 | > 500 | CCOc1ccc(-n2nc3c(C(C#N)C(=O)OC(C)(C)C)nnc(C)c3c2C)c(F)c1 (centres unmarked) [Ex 61, tert-Butyl 2-cyano-2-(2-(4-ethoxy-2-fluorophenyl)-3,4-dimethyl-2H-pyrazolo[3,4-d]pyridazin-7-yl)acetate] | –
20 | 500 to 3000 | > 500 | CCOc1ccc(-n2nc3c(CC#N)nnc(C)c3c2C)c(F)c1 [Ex 62, 2-(2-(4-Ethoxy-2-fluorophenyl)-3,4-dimethyl-2H-pyrazolo[3,4-d]pyridazin-7-yl)acetonitrile] | –
21 | ≥ 5000 | > 500 | CCOc1ccc(-n2nc3c(CCNC(=O)OC(C)(C)C)nnc(C)c3c2C)c(F)c1 [Ex 63, tert-Butyl (2-(2-(4-ethoxy-2-fluorophenyl)-3,4-dimethyl-2H-pyrazolo[3,4-d]pyridazin-7-yl)ethyl)carbamate] | –
22 | ≥ 5000 | > 500 | CCOc1ccc(-n2nc3c(C(C#N)(Cc4ccccc4)C(=O)OC(C)(C)C)nnc(C)c3c2C)c(F)c1 (centres unmarked) [Ex 64, tert-Butyl 2-cyano-2-(2-(4-ethoxy-2-fluorophenyl)-3,4-dimethyl-2H-pyrazolo[3,4-d]pyridazin-7-yl)-3-phenylpropanoate] | –
23 | 500 to 3000 | > 500 | CCOc1ccc(-n2nc3c(C(C#N)Cc4ccccc4)nnc(C)c3c2C)c(F)c1 (centres unmarked) [Ex 65, 2-(2-(4-Ethoxy-2-fluorophenyl)-3,4-dimethyl-2H-pyrazolo[3,4-d]pyridazin-7-yl)-3-phenylpropanenitrile] | –

Row | SMILES | Ki [1] [nM] | Ki (human μ-opioid receptor; [2]) [nM] | Ki (human μ-opioid receptor) [nM]
24 | CCOc1ccc(-n2nc3c(C4CCN(CCc5ccccc5F)CC4)nnc(C)c3c2C)c(F)c1 [Ex 43, 2-(4-Ethoxy-2-fluorophenyl)-7-(1-(2-fluorophenethyl)piperidin-4-yl)-3,4-dimethyl-2H-pyrazolo[3,4-d]pyridazine] | 500 to 3000 | – | < 500
25 | CCOc1ccc(-n2nc3c(C4CCN(CCc5cccc(F)c5)CC4)nnc(C)c3c2C)c(F)c1 [Ex 44, 2-(4-Ethoxy-2-fluorophenyl)-7-(1-(3-fluorophenethyl)piperidin-4-yl)-3,4-dimethyl-2H-pyrazolo[3,4-d]pyridazine] | 500 to 3000 | – | < 500
